Measurements reported in ChEMBL document CHEMBL4420073, “Small molecule inhibitors of MUC1 and methods of identifying the same” (2015).
Blank lines part the entries; values can stand above or below the compound they belong to. The source made the active and inactive calls. No cut-off for these calls is given here.

Tests used:
Mucin-1 (Homo sapiens) [1] = molecular target: Mucin-1 (Homo sapiens) (UniProt P15941); test: Inhibition of soluble unbound MUC1-CD dimerization (unknown origin) by immunoblot analysis; conditions: concentration not given here
Sequence of Mucin-1 (Homo sapiens) (P15941 24-1097 limits assumed): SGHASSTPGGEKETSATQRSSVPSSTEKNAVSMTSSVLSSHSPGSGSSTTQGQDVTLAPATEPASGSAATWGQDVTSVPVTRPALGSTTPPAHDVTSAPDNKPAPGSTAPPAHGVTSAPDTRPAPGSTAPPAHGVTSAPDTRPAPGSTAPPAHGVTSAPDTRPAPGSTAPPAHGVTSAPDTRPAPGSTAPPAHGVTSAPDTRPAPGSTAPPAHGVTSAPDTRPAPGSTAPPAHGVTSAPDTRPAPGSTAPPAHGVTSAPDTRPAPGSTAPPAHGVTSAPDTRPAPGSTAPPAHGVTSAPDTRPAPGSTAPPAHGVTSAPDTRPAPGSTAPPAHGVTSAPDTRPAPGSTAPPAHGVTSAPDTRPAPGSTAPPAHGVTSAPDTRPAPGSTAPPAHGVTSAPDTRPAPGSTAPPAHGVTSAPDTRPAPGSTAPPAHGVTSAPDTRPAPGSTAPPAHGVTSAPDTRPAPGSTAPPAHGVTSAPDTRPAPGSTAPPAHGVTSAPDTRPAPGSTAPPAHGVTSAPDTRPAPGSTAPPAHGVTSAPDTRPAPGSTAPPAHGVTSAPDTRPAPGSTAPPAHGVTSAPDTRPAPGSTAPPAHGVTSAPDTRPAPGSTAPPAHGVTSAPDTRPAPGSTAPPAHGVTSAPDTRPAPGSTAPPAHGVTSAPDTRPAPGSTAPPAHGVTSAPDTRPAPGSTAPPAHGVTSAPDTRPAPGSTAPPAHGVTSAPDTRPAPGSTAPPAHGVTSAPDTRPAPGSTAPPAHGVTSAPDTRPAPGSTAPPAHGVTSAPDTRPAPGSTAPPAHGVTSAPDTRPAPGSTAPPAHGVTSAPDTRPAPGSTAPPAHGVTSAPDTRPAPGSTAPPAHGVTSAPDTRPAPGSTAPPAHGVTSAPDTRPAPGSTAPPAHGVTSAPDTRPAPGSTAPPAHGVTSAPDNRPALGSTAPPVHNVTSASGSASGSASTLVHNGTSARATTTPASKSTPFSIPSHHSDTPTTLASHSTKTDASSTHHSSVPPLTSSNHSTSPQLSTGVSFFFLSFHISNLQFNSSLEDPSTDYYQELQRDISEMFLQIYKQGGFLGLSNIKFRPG
Sequence of Mucin-1 (Homo sapiens) (P15941 1098-1255 limits assumed): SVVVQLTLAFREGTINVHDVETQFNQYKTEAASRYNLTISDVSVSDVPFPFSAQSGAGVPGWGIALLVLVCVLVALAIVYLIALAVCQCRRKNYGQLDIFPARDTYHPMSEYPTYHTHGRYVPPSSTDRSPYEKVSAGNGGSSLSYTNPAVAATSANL

Mucin-1 (Homo sapiens) [2] = molecular target: Mucin-1 (Homo sapiens) (UniProt P15941); test: Inhibition of MUC1-CD dimerization (unknown origin) expressed in HEK293 cells assessed as disruption of interaction between Flag-MUC1-CD and GFP-MUC1-CD by coimmunoprecipitation assay; assay type: cell-based
Mucin-1 (Homo sapiens) [3] = molecular target: Mucin-1 (Homo sapiens) (UniProt P15941); test: Inhibition of MUC1-CD dimerization in human MCF10A cells assessed as reduction in MUC1-C levels at 50 to 100 uM incubated for 3 days by immunoblot analysis; assay type: cell-based
MCF-10A [4] = test: Growth inhibition of immortalized human MCF10A cells assessed as reduction in cell number up to 100 uM incubated for 3 days by MTS assay; assay type: functional, cell-based
MCF-10A [5] = test: Induction of apoptosis in immortalized human MCF10A cells assessed as caspase-9 cleavage at 75 uM incubated for 3 days by immunoblot analysis; assay type: functional, cell-based
MCF-10A [6] = test: Induction of cell membrane integrity loss in immortalized human MCF10A cells at 75 uM incubated for 3 days by propidium iodide staining based flow cytometry; assay type: functional
MCF7 [7] = test: Reduction of MUC1 mRNA levels in human MCF7 cells at 75 uM incubated for 3 days by qRT-PCR analysis; assay type: functional, cell-based
Mucin-1 (Homo sapiens) [8] = molecular target: Mucin-1 (Homo sapiens) (UniProt P15941); test: Inhibition of MUC1 nuclear import in human MCF7 cells assessed as decrease in nuclear MUC1-C levels at 75 uM incubated for 3 days by immunoblot analysis; assay type: cell-based
Mucin-1 (Homo sapiens) [9] = molecular target: Mucin-1 (Homo sapiens) (UniProt P15941); test: Inhibition of MUC1 in human MCF7 cells assessed as decrease in MUC1 protein level in whole cell lysates at 75 uM incubated for 3 days by immunoblot analysis; assay type: subcellular; conditions: Lysate
MCF7 [10] = test: Growth inhibition in human MCF7 cells assessed as reduction in cell number at 75 uM incubated for 3 days in presence of MUC1 siRNA by MTS assay; assay type: functional, cell-based
MCF7 [11] = test: Induction of apoptosis in human MCF7 cells assessed as caspase-9 cleavage at 75 uM incubated for 3 days by immunoblot analysis; assay type: functional, cell-based
MCF7 [12] = test: Induction of cell membrane integrity loss in human MCF7 cells assessed as PI uptake level at 75 uM incubated for 3 days by propidium iodide staining based flow cytometry (reference value: 22%); assay type: functional
MCF-10A [13] = test: Induction of cell membrane integrity loss in immortalized human MCF10A cells assessed as PI uptake level at 50 uM incubated for 3 days by propidium iodide staining based flow cytometry (reference value: 23%); assay type: functional
MCF-10A [14] = test: Induction of cell membrane integrity loss in immortalized human MCF10A cells assessed as PI uptake level at 75 uM incubated for 3 days by propidium iodide staining based flow cytometry (reference value: 23%); assay type: functional
MCF-10A [15] = test: Induction of cell membrane integrity loss in immortalized human MCF10A cells assessed as PI uptake level at 100 uM incubated for 3 days by propidium iodide staining based flow cytometry (reference value: 23%); assay type: functional
MCF7 [16] = test: Inhibition of colony formation in human MCF7 cells assessed as decrease in colonies at 25 uM incubated for 2 weeks by crystal violet staining based assay; assay type: functional, cell-based
MCF7 [17] = test: Inhibition of colony formation in human MCF7 cells assessed as decrease in colonies at 50 to 75 uM incubated for 2 weeks by crystal violet staining based assay; assay type: functional
Mucin-1 (Homo sapiens) [18] = molecular target: Mucin-1 (Homo sapiens) (UniProt P15941); test: Inhibition of MUC1 in human BT474 cells assessed as reduction in MUC1-C expression at 25 to 75 uM incubated for 3 days by immunoblot analysis; assay type: cell-based
BT-474 [19] = test: Growth inhibition of human BT474 cells assessed as reduction in cell number up to 150 uM incubated for 3 days by MTS assay; assay type: functional, cell-based
HCC1937 = test: Growth inhibition of human HCC1937 cells assessed as reduction in cell number up to 150 uM incubated for 3 days by MTS assay; assay type: functional, cell-based
BT-474 [20] = test: Inhibition of colony formation in human BT474 cells assessed as decrease in colonies at 25 to 75 uM incubated for 2 weeks by crystal violet staining based assay; assay type: functional, cell-based
Mucin-1 (Homo sapiens) [21] = molecular target: Mucin-1 (Homo sapiens) (UniProt P15941); test: Inhibition of biotinylated MUC1-CD dimerization (unknown origin) assessed as decrease in oligomer formation at 100 uM by streptavidin-HRP based assay relative to control

- inhibition (Mucin-1 (Homo sapiens) [1]): 100%
- inhibition (Mucin-1 (Homo sapiens) [2]): Active
- inhibition (Mucin-1 (Homo sapiens) [3]): Active
- inhibition (Mucin-1 (Homo sapiens) [8]): Active
- inhibition (Mucin-1 (Homo sapiens) [9]): Active
- inhibition (Mucin-1 (Homo sapiens) [18]): Active
Structure (SMILES): O=c1cc(-c2ccc(O)cc2)oc2cc(O)cc(O)c12 [APIGENIN]
- growth inhibition (GI) (MCF-10A [4]): Active
- Activity (MCF-10A [5]): Active
- Activity (MCF-10A [6]): Active
- Activity (MCF7 [7]): Active
- growth inhibition (GI) (MCF7 [10]): inactive
- Activity (MCF7 [11]): Active
- Activity (MCF7 [12]): 64%
- Activity (MCF-10A [13]): 81%
- Activity (MCF-10A [14]): 98%
- Activity (MCF-10A [15]): 96%
- inhibition (MCF7 [16]): Active
- inhibition (INH) (MCF7 [17]): 100%
- growth inhibition (GI) (BT-474 [19]): Active
- growth inhibition (GI) (HCC1937): inactive
- inhibition (BT-474 [20]): Active

- inhibition (Mucin-1 (Homo sapiens) [21]): > 50%
Structure (SMILES): CCCc1cc2c(=O)c(-c3ccc4c(c3)OCCCO4)c(C)oc2cc1OC

- inhibition (Mucin-1 (Homo sapiens) [21]): > 50%
Structure (SMILES): O=c1cc(C(F)(F)F)c2ccc(OCc3ccccc3)cc2o1
